We go through three compounds from US20230075368A1, “IDENTIFICATION OF AN EGFR-BIN3 PATHWAY THAT ACTIVELY SUPPRESSES INVASION AND REDUCES TUMOR SIZE IN GLIOBLASTOMA” (The United States Govemment as represented by the …, priority 2020, published 2023).

One assay deals with BIN3. Kind of assay: BIN3 expression by Western blot / real-time PCR. It counts as cell-based, human. The method, then: Mayo PDX cells were serum starved overnight. Following treatment for specific time, cells were harvested and lysed. The human glioblastoma tissues were ground in liquid nitrogen and then were lysed. […] TGFα antibody was from R&D system.
Total RNA from cells was extracted by TRIzol Reagent (Ambion). […] The expression of each gene was normalized to GAPDH as a reference. The following primers were used.
Specifically, Western blot analysis of BIN3 in PDXs in response to EGF was performed (FIG. 4A). Cells were serum starved overnight and treated with 50 ng/ml EGF for 48 hours. BIN3 mRNA levels in EGF-treated PDXs were determined by real-time PCR (FIG. 7B). […] Cells were treated with BIN3 or scrambled siRNA for 48 hours, transfected cells were treated with or without 50 ng/ml EGF for 24 hours. Similar experiments were conducted in GBM6 and GBM22 (FIG. 7D and FIG. 7E). Referring to FIG. 7F, knockdown efficiency of BIN3 siRNA was analyzed by Western blotting. […] Cells were transiently transfected with vector expressing BIN3 for 48 hours followed by invasion assay. […] EGR1 mRNA levels in GBM12 and GBM6 after EGF treatment were determined by real-time PCR (RT-PCR) (FIG. 7I). […] A similar experiment was performed in GBM6 (FIG. 7L). […] A similar experiment was performed in GBM6 (FIG. 7N). Knockdown efficiency of EGR-1 siRNA was analyzed by Western blotting (FIG. 7O). The Western blot images are representative of three independent biological replicates. Actin served as loading control. Data are represented as mean±SEM from three independent experiments. * P<0.05, **P<0.01, unpaired two-tailed t-test.
For orientation: In western blotting, separated proteins are transferred to a membrane and probed.

Another assay concerns Mayo PDX cells. Kind of assay: Matrigel invasion assay. It counts as cell-based, human. The method, then:
Invasion status of cells was tested with Matrigel Boyden chamber assays (Fisher). 1×10^5 cells were plated on BD BioCoat Matrigel invasion chambers. 24 hours after treatment with drugs, invaded cells were stained with the HEMA-3 kit (Fisher). Invaded cells were counted in 4-5 random fields.
An equal number of cells (5×10^4) were seeded on Matrigel coated inserts, and were untreated (control vehicle) or stimulated with 50 ng/ml EGF for 24 hours, cells invading to the other side of the membrane were counted and presented as percentage cell invasion. […] A similar invasion assay was conducted on GBM26 cells (FIG. 2D). […] Cells were transfected with EGFR or scrambled siRNA for 48 hours before the invasion assay. A similar invasion assay was performed on GBM6 (FIG. 2G). […] Cells were transiently transfected with empty or EGFR wildtype (EGFRwt) overexpressing vector, and invasion assay was performed after 48 hours after transfection. […] Cells were treated with or without 50 ng/ml EGF for 48 hours before the assay. The Western blot images are representative of three independent biological replicates. Actin served as loading control. Data are represented as mean±SEM from three independent experiments. *P<0.05, **P<0.01, n.s. not significant, unpaired two-tailed Student's t-test.
FIG. 3C and FIG. 3D show the results of a Matrigel invasion assay of EGFR siRNA knockdown in GBM12 and GBM6 in response to EGF. Cells were treated with EGFR or scrambled siRNA for 48 hours, transfected cells were seeded on Matrigel coated inserts and were treated with or without 50 ng/ml EGF for 24 hours. […] Cells were transiently transfected with EGFRvIII expression or empty vector, invasion assay was performed 48 hours after transfection. […] Western blot images are representative of three independent biological replicates. Actin served as a loading control. Data are represented as mean±SEM from three independent experiments. […], **P<0.01, ***P<0.001, n.s. not significant, unpaired two-tailed t-test.

Consider `C[C@@H]1CCN(C(=O)CC#N)C[C@@H]1N(C)c1ncnc2[nH]ccc12` [tofacitinib], for which the “upregulation of BIN3” value in the assay on BIN3 (GBM39 and GBM44 (high endogenous EGFR ligand, high BIN3), tofacitinib 1 μM, 48 hours) is on record as “do not respond”; in the assay on BIN3 (GBM39 with HBEGF silenced, tofacitinib, 48 hours), “could now upregulate BIN3”. Further, the “BIN3 mRNA level” value in the assay on BIN3 (tofacitinib 1 μM, 24 hours, PDXs) is “upregulates BIN3 at the mRNA level”. Also, the BIN3 protein level result with BIN3 (tofacitinib 1 μM, 48 hours, multiple PDX lines) is given as “strongly upregulated”. In addition, in the assay on BIN3 (tofacitinib in cells treated with a saturating concentration of EGF, 48 hours, GBM12 and GBM6), the BIN3 level result is reported as “did not induce a further increase”. For the same compound, the “responsiveness in invasion assay” value in the assay with Mayo PDX cells (GBM39 with HBEGF silenced vs. GBM39 control, tofacitinib 1 μM) is given as “more responsive”. The cell invasion entry with Mayo PDX cells (GBM44 with HB-EGF siRNA knockdown, tofacitinib 1 μM) is listed as “inhibits invasion”; in the assay with Mayo PDX cells (tofacitinib 1 μM, 24 hours, multiple PDX lines), “inhibited invasiveness”.

In the case of “EGF: Recombinant human EGF (AF-100) from Peprotech; EGFR ligand”, the BIN3 protein level result with BIN3 (EGF 50 ng/ml, 48 hours, Mayo PDX lines, Western blot) was “robust increase”. For the same compound, the “BIN3 mRNA level” value in the assay with BIN3 (EGF-treated PDXs, real-time PCR) is “regulated by EGF at the mRNA level”. Moreover, the cell invasion entry in the assay with Mayo PDX cells (EGF 50 ng/ml, 24 hours, multiple Mayo PDX explant cultures expressing EGFRwt or EGFRvIII plus EGFRwt) was “suppressed invasion”; in the assay on Mayo PDX cells (EGFR overexpressing PDX cells exposed to EGF), “invasion is suppressed”.

With HGF: the ligand for Met, the BIN3 levels result in the assay on BIN3 (HGF 20 ng/ml, 24 hours) is reported as “does not affect BIN3 levels”. Further, the cell invasion result in the assay on Mayo PDX cells (HGF 20 ng/ml, 24 hours, GBM12 and GBM6) was “increased invasiveness”.
